This is an account of results in patent US7084151B2 (Ligand Pharmaceuticals Incorporated, priority 2002, dated 2006).

Where two headings read alike, the source gives them in different places.

Series [1] concerns the target T1, PR (Homo sapiens, UniProt P06401).
T1 construct: expressed in transfected cells; host or cells: CV-1 cells (African green monkey kidney fibroblasts), transiently transfected
T1 sequence (P06401 1-933): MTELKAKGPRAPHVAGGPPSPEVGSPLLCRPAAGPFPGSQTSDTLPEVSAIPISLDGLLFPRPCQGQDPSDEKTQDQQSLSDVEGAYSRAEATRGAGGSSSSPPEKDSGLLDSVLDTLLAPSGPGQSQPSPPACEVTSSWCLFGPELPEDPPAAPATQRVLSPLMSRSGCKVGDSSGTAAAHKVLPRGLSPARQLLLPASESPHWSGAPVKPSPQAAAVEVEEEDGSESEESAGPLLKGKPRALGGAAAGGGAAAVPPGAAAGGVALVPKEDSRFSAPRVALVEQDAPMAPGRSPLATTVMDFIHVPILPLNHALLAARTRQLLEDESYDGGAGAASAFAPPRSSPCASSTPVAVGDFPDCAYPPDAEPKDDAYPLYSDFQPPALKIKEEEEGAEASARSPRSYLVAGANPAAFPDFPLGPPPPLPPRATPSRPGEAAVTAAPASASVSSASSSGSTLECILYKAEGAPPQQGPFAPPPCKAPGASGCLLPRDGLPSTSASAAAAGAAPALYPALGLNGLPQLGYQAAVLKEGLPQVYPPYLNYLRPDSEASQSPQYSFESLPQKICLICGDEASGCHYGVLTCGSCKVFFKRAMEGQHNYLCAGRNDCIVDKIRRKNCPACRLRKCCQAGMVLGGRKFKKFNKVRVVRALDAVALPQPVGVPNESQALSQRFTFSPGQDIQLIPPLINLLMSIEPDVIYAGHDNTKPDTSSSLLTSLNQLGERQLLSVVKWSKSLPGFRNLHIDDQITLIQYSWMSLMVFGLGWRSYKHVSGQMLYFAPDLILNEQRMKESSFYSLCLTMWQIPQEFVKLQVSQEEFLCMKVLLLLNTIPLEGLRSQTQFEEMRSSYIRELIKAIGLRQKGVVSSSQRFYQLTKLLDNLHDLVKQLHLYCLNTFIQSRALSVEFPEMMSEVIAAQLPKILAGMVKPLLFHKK
Put plainly: Cotransfection assay, PR antagonist activity in CV-1 cells. The series is classed as cell-based. Conditions: for Emax: percent maximal response relative to reference antagonist, read-out: PR Antagonist CV-1 Cells Efficacy.
Experimental: (§1) Briefly, the cotransfection assays were carried out in CV-1 cells (African green monkey kidney fibroblasts), which were transiently transfected, by the standard calcium phosphate coprecipitation procedure (Berger, et al., J. Steroid Biochem. Mol. Bio. 1992, 41, 733–738) with the Plasmid containing receptor, MTV-LUC reporter, pRS-β-Gal, and filler DNA (Rous sarcoma virus chloramphenicol acetyltransferase). […] All the cotransfection experiments were carried out in 96-well plates by automation (Beckman Biomomek automated workstation).

In series [2] the target is T1, PR. Kind of series: Cotransfection assay, PR agonist activity in CV-1 cells. The series is classed as cell-based. Conditions: for Emax: CV-1, read-out: PR Agonist CV-1 Cells Efficacy.
Experimental: as §1
The target of another series is T2, hPR-A (Homo sapiens, UniProt P06401).
T2 sequence (P06401 1-769 isoform P06401-2): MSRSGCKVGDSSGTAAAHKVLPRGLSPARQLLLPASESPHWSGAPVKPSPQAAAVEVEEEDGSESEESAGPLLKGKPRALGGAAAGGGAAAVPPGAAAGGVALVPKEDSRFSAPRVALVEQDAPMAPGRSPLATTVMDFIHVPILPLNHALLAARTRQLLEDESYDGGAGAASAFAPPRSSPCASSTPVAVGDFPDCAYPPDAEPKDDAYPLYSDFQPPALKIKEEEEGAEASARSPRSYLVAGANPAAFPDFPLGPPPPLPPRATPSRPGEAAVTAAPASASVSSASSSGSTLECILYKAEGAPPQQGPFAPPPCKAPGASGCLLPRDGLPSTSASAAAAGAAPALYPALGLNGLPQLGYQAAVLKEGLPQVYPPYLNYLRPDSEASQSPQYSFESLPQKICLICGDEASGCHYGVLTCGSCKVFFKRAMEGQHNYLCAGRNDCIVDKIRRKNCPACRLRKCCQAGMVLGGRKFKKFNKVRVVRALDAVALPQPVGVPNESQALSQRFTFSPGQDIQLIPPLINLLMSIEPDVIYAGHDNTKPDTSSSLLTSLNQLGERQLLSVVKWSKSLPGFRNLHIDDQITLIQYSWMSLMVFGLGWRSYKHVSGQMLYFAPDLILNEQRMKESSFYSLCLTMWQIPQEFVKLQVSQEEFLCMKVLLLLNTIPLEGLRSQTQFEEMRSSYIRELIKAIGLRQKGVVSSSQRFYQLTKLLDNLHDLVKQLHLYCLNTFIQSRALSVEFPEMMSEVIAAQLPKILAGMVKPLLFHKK
Kind of series: Receptor competitive binding assay. Conditions: read-out: PR Binding Ki.

The mark [3] stands for this setting: CV-1 cells, MTV-LUC reporter, read-out: PR Agonist CV-1 Cells Potency (EC50).
The mark [4] stands for this setting: CV-1 cells, MTV-LUC reporter, read-out: PR Antagonist CV-1 Cells Potency (IC50).

Text for hPR-A: The preparation of receptor binding assays for hPR-A was described in literature (Pathirana, et al., Mol. Pharm. 1995, 47, 630–635.)

The melting point is the temperature of the solid-liquid transition. As usually defined, the IC50 is the concentration that gives 50% inhibition. One may read the EC50 as the concentration needed to bring the measured effect to its halfway point. The Ki is the equilibrium dissociation constant of an inhibitor or competing ligand from its target. For the compound `CC1=CC(C)(C)Nc2ccc3c(c21)C(=C1SCCCS1)Oc1ccc(F)cc1-3` [Compound 10, 9-Fluoro-5-(1,3-dithia-2-cyclohexylidene)-1,2-dihydro-2,2,4-trimethyl-5H-chromeno[3,4-f]quinoline], the melting point is 120 to 122 °C. At PR [1], the IC50 was over 1000 nM. Besides, the Emax at PR [1] (CV-1 cells) is under 20%. Further, at PR [2], the EC50 came out at 2 nM and the Emax stood at 144%. The Ki at hPR-A was found to be 6.3 nM.

Turning to `CC1=CC(C)(C)Nc2ccc3c(c21)C(=C1CCCCC1)Oc1c(F)cccc1-3` [Compound 19, 7-fluoro-5-cyclohexylidene-1,2-dihydro-2,2,4-trimethyl-5H-chromeno[3,4-f]quinoline], the Emax on PR [2] was found to be 48%. At PR [2] (setting [3]), the EC50 was found to be 38 nM. Moreover, the Ki at hPR-A stood at 74 nM.

For `CN(C)c1ccc([C@H]2C[C@]3(C)[C@@H](CC[C@]3(O)CCCO)[C@@H]3CCC4=CC(=O)CCC4=C32)cc1` [ZK299, reference compound], the figures for the Emax on PR [1] (CV-1 cells) and at PR [2] were 99% and under 20%, respectively.

Consider `COc1ccc2c(c1)OC(=C1SCCCS1)c1c-2ccc2c1C(C)=CC(C)(C)N2` [Compound 13, 8-methoxy-5-(1,3-dithia-2-cyclohexylidene)-1,2-dihydro-2,2,4-trimethyl-5H-chromeno[3,4-f]quinoline], for which the IC50 at PR [1] (setting [4]) was over 1000 nM. Moreover, the values for the Emax at PR [1] (CV-1 cells) and on PR [2] were under 20% and 56%, respectively. The EC50 at PR [2] (setting [3]) turned out to be 32 nM. Moreover, the Ki at hPR-A was 14 nM.

Take `CC1=CC(C)(C)Nc2ccc3c(c21)C(=C1C=CCCC1)Oc1c(F)cccc1-3` [Compound 23, 7-fluoro-5-(2-cyclohexenylidene)-1,2-dihydro-2,2,4-trimethyl-5H-chromeno[3,4-f]quinoline]: the IC50 at PR [1] (setting [4]) was over 1000 nM. Besides, the Emax was under 20% on PR [1] (CV-1 cells) and 70% at PR [2]. Further, the EC50 at PR [2] (setting [3]) was 35 nM. Also, the Ki on hPR-A was determined as 22 nM.

Consider `CC1=CC(C)(C)Nc2ccc3c(c21)C(=C1SCCCS1)Oc1c(F)cc(F)cc1-3` [Compound 15, 7,9-difluoro-5-(1,3-dithia-2-cyclohexylidene)-1,2-dihydro-2,2,4-trimethyl-5H-chromeno[3,4-f]quinoline], for which, on PR [1] (setting [4]), the IC50 was over 1000 nM. The Emax is under 20% at PR [1] (CV-1 cells) and 155% at PR [2]. Besides, the EC50 at PR [2] (setting [3]) was 5.3 nM. Moreover, the Ki at hPR-A was found to be 3.7 nM.

On to `CC#C[C@]1(O)CC[C@H]2[C@@H]3CCC4=CC(=O)CCC4=C3[C@@H](c3ccc(N(C)C)cc3)C[C@@]21C` [RU486, mifepristone, reference compound], for which the “PR Agonist CV-1 Cells Efficacy” value on PR [2] (CV-1 cells, percent maximal response relative to progesterone) is “na (na = not active (i.e. efficacy of <20 and potency of >1,000))”.

Regarding `CC1(C)C=Cc2c(ccc3c2C(=C2SCCCS2)Oc2c(F)cccc2-3)N1` [Compound 21, 7-fluoro-5-(1,3-dithia-2-cyclohexylidene)-1,2-dihydro-2,2-dimethyl-5H-chromeno[3,4-f]quinoline], the Emax at PR [2] is 45%. In addition, at PR [2] (setting [3]), the EC50 was 32 nM.

For the compound `CC(=O)[C@H]1CC[C@H]2[C@@H]3CCC4=CC(=O)CC[C@]4(C)[C@H]3CC[C@]12C` [Prog, progesterone, reference compound], the Emax on PR [1] (CV-1 cells) was under 20%; at PR [2] it was 100%.

Turning to `CC1=CC(C)(C)Nc2ccc3c(c21)C(=C1CCCCC1)Oc1c(F)cc(F)cc1-3` [Compound 20, 7,9-difluoro-5-cyclohexylidene-1,2-dihydro-2,2,4-trimethyl-5H-chromeno[3,4-f]quinoline], the IC50 on PR [1] (setting [4]) is over 1000 nM. The Emax on PR [1] (CV-1 cells) was under 20%; on PR [2] it was 82%. At PR [2] (setting [3]), the EC50 is 16 nM. On hPR-A, the Ki was 39 nM.

For the compound `CC1=CC(C)(C)Nc2ccc3c(c21)C(=C1SCCCS1)Oc1c(F)cccc1-3` [Compound 17, 7-fluoro-5-(1,3-dithia-2-cyclohexylidene)-1,2-dihydro-2,2,4-trimethyl-5H-chromeno[3,4-f]quinoline], at PR [1] (setting [4]), the IC50 was over 1000 nM. Besides, the figures for the Emax on PR [1] (CV-1 cells) and on PR [2] were under 20% and 107%, respectively. Moreover, at PR [2] (setting [3]), the EC50 is 11 nM. Also, on hPR-A, the inhibitory constant (Ki) was found to be 4.3 nM.
